Literature values in patent publication US5613958A, “Transdermal delivery systems for the modulated administration of drugs” (PP Holdings Inc., priority 1995, dated 1997).

Settings: for accumulation in plasma: during continuous ISDN therapy

In the case of `O=[N+]([O-])O[C@H]1CO[C@H]2[C@@H]1OC[C@H]2O` [IS-2-MN, isosorbide 2-mononitrate], the accumulation in plasma is given as “accumulate in the plasma”.

In the case of `O=[N+]([O-])O[C@@H]1CO[C@H]2[C@@H]1OC[C@@H]2O` [IS-5-MN, isosorbide 5-mononitrate], the antianginal efficacy (dose regimens letting IS-5-MN fall below 100 ng/ml before next dose) is listed as “continuous antianginal efficacy”, the accumulation in plasma is listed as “accumulate in the plasma” and the rate of elimination (metabolite of ISDN) is listed as “slowest rate of elimination”.
